Inconclusive results and toxic doses are left out.
Tested on: CD2F1 mice, L1210 leukemia ip, survival T/C
Experiment: NCI In Vivo Anticancer Drug Screen. Data for tumor model L1210 Leukemia (intraperitoneal) in CD2F1 (CDF1) mice
Conditions: higher = longer survival
Outline: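 Implant tumor; dose compound or vehicle; measure endpoint in both groups; report treated divided by control.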

[1] = endpoint: mean survival time, dose: 100.0 mg/kg/injection, schedule: Q01DX001 (ip), vehicle: saline with Tween-80
[2] = endpoint: mean survival time, dose: 200.0 mg/kg/injection, schedule: Q01DX001 (ip), vehicle: saline with Tween-80
[3] = endpoint: mean survival time, dose: 400.0 mg/kg/injection, schedule: Q01DX001 (ip), vehicle: saline with Tween-80
[4] = endpoint: mean survival time, dose: 100.0 mg/kg/injection, schedule: Q04DX003 (ip), vehicle: saline
[5] = endpoint: mean survival time, dose: 200.0 mg/kg/injection, schedule: Q04DX003 (ip), vehicle: saline
[6] = endpoint: mean survival time, dose: 400.0 mg/kg/injection, schedule: Q04DX003 (ip), vehicle: saline
[7] = endpoint: mean survival time, dose: 100.0 mg/kg/injection, schedule: Q04DX003 (ip), vehicle: saline with Tween-80
[8] = endpoint: mean survival time, dose: 200.0 mg/kg/injection, schedule: Q04DX003 (ip), vehicle: saline with Tween-80
[9] = endpoint: mean survival time, dose: 400.0 mg/kg/injection, schedule: Q04DX003 (ip), vehicle: saline with Tween-80
[10] = endpoint: mean survival time, dose: 100.0 mg/kg/injection, schedule: Q01DX009 (ip), vehicle: saline with Tween-80
[11] = endpoint: mean survival time, dose: 200.0 mg/kg/injection, schedule: Q01DX009 (ip), vehicle: saline with Tween-80
[12] = endpoint: mean survival time, dose: 25.0 mg/kg/injection, schedule: Q01DX009 (ip), vehicle: Klucel (hydroxypropylcellulose) (HPC)
[13] = endpoint: mean survival time, dose: 50.0 mg/kg/injection, schedule: Q01DX009 (ip), vehicle: Klucel (hydroxypropylcellulose) (HPC)
[14] = endpoint: mean survival time, dose: 50.0 mg/kg/injection, schedule: Q01DX009 (ip), vehicle: saline with Tween-80

O=C(Nc1ccccc1[N+](=O)[O-])c1ccc(C(=O)Nc2ccccc2[N+](=O)[O-])cc1
T/C (endpoint: mean survival time, dose: 75.0 mg/kg/injection, schedule: Q01DX001 (ip), vehicle: saline): 87 % of control
T/C (endpoint: mean survival time, dose: 150.0 mg/kg/injection, schedule: Q01DX001 (ip), vehicle: saline): 96 % of control
T/C (endpoint: mean survival time, dose: 300.0 mg/kg/injection, schedule: Q01DX001 (ip), vehicle: saline): 91 % of control

O=C(Nc1cccc2ccccc12)c1ccccc1
T/C [1]: 95 % of control
T/C [2]: 95 % of control
T/C [3]: 92 % of control

O=[N+]([O-])c1ccc(CS(=O)(=O)O)cc1
T/C (endpoint: mean survival time, dose: 100.0 mg/kg/injection, schedule: Q04DX002 (ip), vehicle: saline): 104 % of control
T/C (endpoint: mean survival time, dose: 200.0 mg/kg/injection, schedule: Q04DX002 (ip), vehicle: saline): 96 % of control
T/C (endpoint: mean survival time, dose: 400.0 mg/kg/injection, schedule: Q04DX002 (ip), vehicle: saline): 96 % of control

CCC(CC(N)=O)C(C#N)(C#N)C(N)=O (centres undefined)
T/C [1]: 100 % of control
T/C [2]: 98 % of control
T/C [3]: 98 % of control

O=[N+]([O-])c1cc(Cl)ccc1Nc1ccccc1
T/C (endpoint: mean survival time, dose: 100.0 mg/kg/injection, schedule: Q04DX003 (ip), vehicle: Klucel (hydroxypropylcellulose) (HPC)): 102 % of control
T/C (endpoint: mean survival time, dose: 200.0 mg/kg/injection, schedule: Q04DX003 (ip), vehicle: Klucel (hydroxypropylcellulose) (HPC)): 102 % of control
T/C (endpoint: mean survival time, dose: 400.0 mg/kg/injection, schedule: Q04DX003 (ip), vehicle: Klucel (hydroxypropylcellulose) (HPC)): 98 % of control

CC(=O)CC(C)=O
T/C [4]: 103 % of control
T/C [5]: 94 % of control
T/C [6]: 100 % of control

COC(=O)N(C)c1cccc(OC(=O)N(C)C)c1
T/C [7]: 92 % of control
T/C [8]: 99 % of control
T/C [9]: 99 % of control

CC(C)NC(=O)N(c1ccccc1)C(C)C
T/C [10]: 102 % of control
T/C [11]: 90 % of control

CCCCCCCCCCCCCCCCCCOCC(CO)OC (centres undefined)
T/C (endpoint: median survival time, dose: 25.0 mg/kg/injection, schedule: Q01DX009 (ip), vehicle: saline with Tween-80): 104 % of control
T/C (endpoint: median survival time, dose: 50.0 mg/kg/injection, schedule: Q01DX009 (ip), vehicle: saline with Tween-80): 101 % of control
T/C (endpoint: median survival time, dose: 100.0 mg/kg/injection, schedule: Q01DX009 (ip), vehicle: saline with Tween-80): 103 % of control
T/C (endpoint: median survival time, dose: 200.0 mg/kg/injection, schedule: Q01DX009 (ip), vehicle: saline with Tween-80): 102 % of control

CN(N=O)c1nnnn1C
T/C [4]: 105 % of control
T/C [5]: 103 % of control
T/C [6]: 106 % of control

S=c1cc[nH]c(=S)[nH]1
T/C (endpoint: mean survival time, dose: 12.5 mg/kg/injection, schedule: Q01DX009 (ip), vehicle: Klucel (hydroxypropylcellulose) (HPC)): 102 % of control
T/C [12]: 98 % of control
T/C [13]: 101 % of control

CCOC(=O)Cc1nnc2ncnc(N)c2n1
T/C (endpoint: mean survival time, dose: 100.0 mg/kg/injection, schedule: Q01DX001 (ip), vehicle: other): 101 % of control
T/C (endpoint: mean survival time, dose: 200.0 mg/kg/injection, schedule: Q01DX001 (ip), vehicle: other): 103 % of control
T/C (endpoint: mean survival time, dose: 400.0 mg/kg/injection, schedule: Q01DX001 (ip), vehicle: other): 98 % of control

COC(=O)C1(C)CCCC2(C)C1CCC13C=C(C(C)C)C(CC1C(=O)O)CC23 (centres undefined)
T/C [7]: 97 % of control
T/C [8]: 101 % of control
T/C [9]: 93 % of control

N#CCc1nc2ccccc2[nH]1
T/C [12]: 98 % of control
T/C [13]: 93 % of control

CCC(=O)OCC(=O)[C@]1(O)Cc2c(O)c3c(c(O)c2[C@@H](OC2CC(N)C(O)C(C)O2)C1)C(=O)c1c(OC)cccc1C3=O (some centres undefined)
T/C (endpoint: mean survival time, dose: 0.25 mg/kg/injection, schedule: Q01DX009 (ip), vehicle: saline): 112 % of control
T/C (endpoint: mean survival time, dose: 0.5 mg/kg/injection, schedule: Q01DX009 (ip), vehicle: saline): 122 % of control
T/C (endpoint: mean survival time, dose: 1.5 mg/kg/injection, schedule: Q04DX003 (ip), vehicle: saline sonified): 166 % of control
T/C (endpoint: mean survival time, dose: 2.0 mg/kg/injection, schedule: Q01DX009 (ip), vehicle: saline): 155 % of control
T/C (endpoint: mean survival time, dose: 2.0 mg/kg/injection, schedule: Q04DX003 (ip), vehicle: saline with Tween-80): 118 % of control
T/C (endpoint: mean survival time, dose: 8.0 mg/kg/injection, schedule: Q01DX009 (ip), vehicle: saline): 89 % of control

COC(=O)C(Cl)c1ccc2c(c1)OCO2 (centres undefined)
T/C [14]: 96 % of control
T/C [10]: 96 % of control
T/C [7]: 96 % of control
T/C [8]: 93 % of control

Cn1c(-c2ccccc2)cc(=O)cc1-c1ccccc1
T/C [14]: 96 % of control
T/C [10]: 93 % of control
T/C [7]: 91 % of control
T/C [11]: 94 % of control
T/C [8]: 97 % of control

CC(C)=N/N=C(N)/C(N)=N/N=C(C)C
T/C (endpoint: mean survival time, dose: 100.0 mg/kg/injection, schedule: Q04DX002 (ip), vehicle: saline with Tween-80): 103 % of control
T/C (endpoint: mean survival time, dose: 200.0 mg/kg/injection, schedule: Q04DX002 (ip), vehicle: saline with Tween-80): 106 % of control
T/C (endpoint: mean survival time, dose: 400.0 mg/kg/injection, schedule: Q04DX002 (ip), vehicle: saline with Tween-80): 95 % of control

CN(Cc1cnc2nc(N)nc(N)c2n1)c1ccc(C(=O)NC(CCC(N)=O)C(=O)O)cc1 (centres undefined)
T/C (endpoint: mean survival time, dose: 1.0 mg/kg/injection, schedule: Q01DX009 (ip), vehicle: sodium bicarbonate): 102 % of control
T/C (endpoint: mean survival time, dose: 10.0 mg/kg/injection, schedule: Q01DX009 (ip), vehicle: sodium bicarbonate): 118 % of control
T/C (endpoint: mean survival time, dose: 50.0 mg/kg/injection, schedule: Q01DX009 (ip), vehicle: sodium bicarbonate): 150 % of control
T/C (endpoint: mean survival time, dose: 180.0 mg/kg/injection, schedule: Q04DX003 (ip), vehicle: sodium bicarbonate): 158 % of control
T/C (endpoint: mean survival time, dose: 268.0 mg/kg/injection, schedule: Q04DX003 (ip), vehicle: sodium bicarbonate): 114 % of control
T/C (endpoint: mean survival time, dose: 400.0 mg/kg/injection, schedule: Q04DX003 (ip), vehicle: sodium bicarbonate): 110 % of control

N#CC(C(=O)c1ccccc1)c1ccccc1 (centres undefined)
T/C (endpoint: mean survival time, dose: 75.0 mg/kg/injection, schedule: Q01DX001 (ip), vehicle: other): 100 % of control
T/C (endpoint: mean survival time, dose: 150.0 mg/kg/injection, schedule: Q01DX001 (ip), vehicle: other): 101 % of control
T/C (endpoint: mean survival time, dose: 300.0 mg/kg/injection, schedule: Q01DX001 (ip), vehicle: other): 106 % of control

O=C(C=P(c1ccccc1)(c1ccccc1)c1ccccc1)c1ccccc1
T/C [7]: 97 % of control
T/C [8]: 101 % of control
T/C [9]: 89 % of control

CC(=O)Nc1ccc(C=O)cc1
T/C (endpoint: mean survival time, dose: 50.0 mg/kg/injection, schedule: Q04DX003 (ip), vehicle: saline): 102 % of control
T/C [4]: 100 % of control
T/C [5]: 100 % of control

Cc1ccc(C)c(C(=O)CCCCl)c1
T/C (endpoint: mean survival time, dose: 25.0 mg/kg/injection, schedule: Q01DX009 (ip), vehicle: saline with Tween-80): 105 % of control
T/C (endpoint: mean survival time, dose: 25.0 mg/kg/injection, schedule: Q04DX003 (ip), vehicle: saline with Tween-80): 93 % of control
T/C [14]: 97 % of control
T/C (endpoint: mean survival time, dose: 50.0 mg/kg/injection, schedule: Q04DX003 (ip), vehicle: saline with Tween-80): 96 % of control
T/C [10]: 100 % of control
T/C [7]: 96 % of control

CC(=O)OCC1OC(N2C(=O)/C(=C/c3ccc4ccccc4c3)SC2=S)C(OC(C)=O)C(OC(C)=O)C1OC(C)=O (centres undefined)
T/C (endpoint: mean survival time, dose: 3.13 mg/kg/injection, schedule: Q01DX005 (ip), vehicle: distilled water + Tween-80): 88 % of control
T/C (endpoint: mean survival time, dose: 6.25 mg/kg/injection, schedule: Q01DX005 (ip), vehicle: distilled water + Tween-80): 94 % of control
T/C (endpoint: mean survival time, dose: 12.5 mg/kg/injection, schedule: Q01DX005 (ip), vehicle: distilled water + Tween-80): 96 % of control
T/C (endpoint: mean survival time, dose: 25.0 mg/kg/injection, schedule: Q01DX005 (ip), vehicle: distilled water + Tween-80): 98 % of control
T/C (endpoint: mean survival time, dose: 50.0 mg/kg/injection, schedule: Q01DX005 (ip), vehicle: distilled water + Tween-80): 100 % of control

COc1cccc(CCC(=O)O)c1OC
T/C [12]: 98 % of control
T/C [13]: 101 % of control
T/C (endpoint: mean survival time, dose: 100.0 mg/kg/injection, schedule: Q01DX009 (ip), vehicle: Klucel (hydroxypropylcellulose) (HPC)): 98 % of control
T/C (endpoint: mean survival time, dose: 200.0 mg/kg/injection, schedule: Q01DX009 (ip), vehicle: Klucel (hydroxypropylcellulose) (HPC)): 87 % of control
T/C (endpoint: mean survival time, dose: 400.0 mg/kg/injection, schedule: Q01DX009 (ip), vehicle: Klucel (hydroxypropylcellulose) (HPC)): 88 % of control

CC(=O)N(C)NC(=O)c1ccccn1
T/C (endpoint: mean survival time, dose: 50.0 mg/kg/injection, schedule: Q01DX001 (ip), vehicle: water): 106 % of control
T/C (endpoint: mean survival time, dose: 100.0 mg/kg/injection, schedule: Q01DX001 (ip), vehicle: water): 103 % of control
T/C (endpoint: mean survival time, dose: 200.0 mg/kg/injection, schedule: Q01DX001 (ip), vehicle: water): 102 % of control
T/C (endpoint: mean survival time, dose: 400.0 mg/kg/injection, schedule: Q01DX001 (ip), vehicle: water): 103 % of control
